Common to all, as to assay: NCI anticancer screen, dose series, 48 h
The test system of assay [1] is SF-539 CNS.
The subject of assay [2] is OVCAR-5 ovarian.
In assay [3] the test system is OVCAR-4 ovarian.
For assay [4], the system named is EKVX NSCLC.
In assay [5] the test system is HCT-15 colon.
Assay [6] concerns K-562 leukemia.
In assay [7] the test system is NCI-H522 lung.
The test system of assay [8] is HCT-116 colon.
For assay [9], the system named is HL-60(TB) leukemia.
The test system of assay [10] is SF-268 CNS.

These results are taken from PubChem BioAssay (NCI).

Several values for one entry are separate records, joined by “and”; a condition that tells them apart may be missing. Equal values may be shown once.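 Exposure lasted 48 hours, with cells grown in 96-well plates and compounds tested at five concentrations. GI50: concentration for 50% inhibition of growth. TGI marks complete inhibition of growth.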

As to `CCN(CC)CCC1CC/C(=C\c2ccc(OC)cc2)C1=O` (configuration not stated), the TGI in assay [1], in assay [2], in [3], in assay [4], in [5] and in assay [6] was above 100 µM each time. Also, the TGI in assay [7], in assay [8], in assay [9] and in [10] was above 100 µM throughout.
As for `CC(=O)OCC1OC(n2c(-c3ccccc3)cc(-c3ccco3)c(C#N)c2=O)C(OC(C)=O)C(OC(C)=O)C1OC(C)=O` (configuration not stated), the GI50 is 16.3 µM and 84.6 µM in [1]; > 100 µM and 18.3 µM in assay [5]; > 68.8 µM and 9.04 µM in assay [6]; 17.4 µM and 35 µM in assay [10]. The TGI in assay [1], in [2], in assay [3], in assay [4], in assay [5] and in assay [6] was above 100 µM in each case. Further, the TGI in assay [7] is above 100 µM; in [8] it was above 100 µM; in assay [9], above 100 µM; in assay [10], 64.2 µM and > 100 µM.
For `COC1=CC23C=CC1[C@@H](c1ccccc1)C2=C(C)C(=O)N3C(=O)NC1CCCCC1` (some centres not stated), the TGI is 39.2 µM in assay [1]; 68.2 µM in [2]; above 100 µM in [4]; 29.1 µM in [5]; above 100 µM in [6]; 41.3 µM in [7]. For the same compound, the results for the TGI in assay [8], in assay [9] and in assay [10] were 28.3 µM, above 100 µM and 33.6 µM, respectively.
Regarding `CN(C(=O)c1ccc(Cl)s1)C(=S)N(C)C(=O)c1ccc(Cl)s1`, the TGI in assay [1], in assay [2], in assay [3], in [4], in assay [5] and in assay [6] was above 10 µM throughout. The TGI in assay [7], in assay [8], in assay [9] and in [10] was above 10 µM each time.
Consider `CC1(C)C(=O)N(c2ccccc2)C(=O)N1c1nc2ccccc2[nH]1`, for which the TGI in [2], in assay [4], in assay [5], in assay [6], in assay [7] and in [8] was above 100 µM throughout. The TGI in assay [9] and in assay [10] was above 100 µM throughout.
For `COC(=O)c1c(-c2ccccc2)cc2c3cc(-c4ccccc4)c(C(=O)OC)n3c3ccccc3n12`, the TGI in assay [1] was above 100 µM; in [2], above 100 µM; in assay [3], above 31.6 µM; in [4], above 100 µM; in assay [5], above 100 µM; in assay [6] it was above 100 µM. In addition, the TGI in [7], in assay [8], in [9] and in assay [10] was above 100 µM each time.
For `COc1ccc(-c2c(C3=NCCN3)nnn2-c2ccccc2)cc1`, the TGI in assay [1], in [2], in assay [3], in assay [4], in assay [5] and in assay [6] was above 100 µM in each case. Moreover, the TGI in assay [7], in assay [8], in [9] and in assay [10] was above 100 µM in each case.
On to `Cc1cc2nc3c(C(OC4OC(CO)C(O)C(O)C4O)C(O)CO)nn(-c4ccccc4)c3nc2cc1C` (configuration not stated), for which the TGI in assay [1], in assay [2], in assay [3], in assay [4], in assay [5] and in assay [6] was above 100 µM throughout. Also, the TGI in assay [7], in [8] and in assay [10] was above 100 µM throughout.
Turning to `COc1ccc2c(c1)sc1nc(-c3ccccc3)c(-c3ccsc3)n12`, the GI50 in assay [1] was 2.62 µM; in [2], 4.49 µM; in assay [3], 3.7 µM; in [4], 7.76 µM; in [5], 2.91 µM; in assay [6], 0.878 µM. Moreover, the GI50 is 2.99 µM in assay [7], 4.18 µM in [8], 3.95 µM in assay [9] and 8.54 µM in assay [10]. Moreover, the TGI in assay [1], in assay [2], in [3], in assay [4], in assay [5] and in assay [6] was above 100 µM each time. Also, the TGI in assay [7] is 36.8 µM; in [8], above 100 µM; in [9] it was 92.7 µM; in assay [10], above 100 µM.
As to `CC1=C2C(O)C(C(C)CO)C(O)CC2(C)C(O)CC1` (configuration not stated), the TGI in assay [1], in assay [2], in assay [3], in assay [4], in [5] and in assay [7] was above 100 µM in each case. The TGI in assay [8], in [9] and in assay [10] was above 100 µM in each case.
As for `S=C(Nc1ccc(-c2nc3ccccc3[nH]2)cc1)NC1CCCCC1`, the GI50 in assay [1] is 22.6 µM; in [2], 42.4 µM; in assay [4], 28.5 µM; in assay [5], 16.2 µM; in assay [6], 31.5 µM; in assay [7], 12.9 µM. In addition, the GI50 in assay [8] is 20.7 µM; in assay [9], 46.9 µM; in assay [10] it was 33.1 µM. For the same compound, the TGI was 48.5 µM in assay [1], 37.9 µM in [5], 35.3 µM in assay [7] and 39.5 µM in [8].
Turning to `C=CCNC(=S)N1CC(C)C(=O)Nc2ccccc21` (configuration not stated), the TGI in [1], in assay [2], in assay [3], in assay [4], in [5] and in assay [6] was above 100 µM in each case. The TGI in assay [7], in assay [8], in assay [9] and in assay [10] was above 100 µM in each case.
